Results on four compounds are retold here after patent US20230265151A1, “GIP/GLP1 CO-AGONIST COMPOUNDS” (priority 2020, published 2023).

Read-outs that look alike come from different tables or passages of the source.

In one test the target is T1, hGIPR (Homo sapiens, UniProt P48546).
T1 construct: expressed in transfected cells
T1 sequence (P48546 22-466): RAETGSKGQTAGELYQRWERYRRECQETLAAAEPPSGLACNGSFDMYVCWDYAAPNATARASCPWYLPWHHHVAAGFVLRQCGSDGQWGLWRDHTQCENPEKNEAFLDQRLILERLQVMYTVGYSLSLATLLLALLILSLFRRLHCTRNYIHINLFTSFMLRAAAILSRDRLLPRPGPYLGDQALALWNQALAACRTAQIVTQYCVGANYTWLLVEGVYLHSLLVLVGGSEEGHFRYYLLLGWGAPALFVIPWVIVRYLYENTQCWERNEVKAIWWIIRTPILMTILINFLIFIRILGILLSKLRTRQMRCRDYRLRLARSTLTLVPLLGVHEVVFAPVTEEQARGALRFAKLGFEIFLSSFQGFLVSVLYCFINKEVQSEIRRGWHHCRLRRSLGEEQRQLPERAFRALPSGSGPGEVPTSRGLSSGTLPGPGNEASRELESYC
Kind of test: Functional cAMP formation (HTRF) in HEK-293 clonal cells expressing hGIPR, 0.1% bovine casein, without or with 1.0% human serum albumin. It counts as cell-based. To be noted: for Emax: read-out: hGIPR Emax, % ± SEM; for EC50: geometric mean, read-out: hGIPR EC50, nM (SEM, n). The method in brief:
(§1)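 Readings of the HTRF 665/620 nm ratio, which falls as cAMP rises, were converted to nM cAMP using a standard curve after 30 min peptide exposure at 37° C.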

A further test concerns the target T2, hGCGR (Homo sapiens, UniProt P47871).
T2 construct: expressed in transfected cells
Nature of the test: Functional cAMP formation (HTRF) in HEK-293 clonal cells expressing hGCGR, 0.1% bovine casein, without or with 1.0% human serum albumin. It counts as cell-based. The following applies: geometric mean, read-out: hGCGR EC50, nM (SEM, n). The method in brief:
as §1

In another test the target is hGLP-1R (Homo sapiens, UniProt P43220). Kind of test: Functional cAMP formation (HTRF) in HEK-293 clonal cells expressing hGLP-1R, 0.1% bovine casein, without or with 1.0% human serum albumin. It counts as cell-based. Further details: expressed in transfected cells. To be noted: for EC50: geometric mean, read-out: hGLP-1R EC50, nM (SEM, n); for Emax: read-out: hGLP-1R Emax, % ± SEM. The method in brief: as §1
Sequence of hGLP-1R (P43220 24-463): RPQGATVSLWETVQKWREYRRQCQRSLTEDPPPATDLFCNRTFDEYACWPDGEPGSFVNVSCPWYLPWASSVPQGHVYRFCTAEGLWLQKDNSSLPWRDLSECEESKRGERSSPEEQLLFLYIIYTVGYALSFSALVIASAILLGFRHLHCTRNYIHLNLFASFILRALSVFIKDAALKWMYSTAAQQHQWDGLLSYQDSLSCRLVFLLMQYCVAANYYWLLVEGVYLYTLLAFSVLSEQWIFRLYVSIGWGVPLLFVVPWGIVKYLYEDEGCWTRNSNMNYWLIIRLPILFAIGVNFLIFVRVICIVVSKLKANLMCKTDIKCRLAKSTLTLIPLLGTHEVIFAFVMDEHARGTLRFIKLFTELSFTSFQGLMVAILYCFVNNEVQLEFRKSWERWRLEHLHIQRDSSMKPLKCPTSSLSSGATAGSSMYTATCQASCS
Background: Changes in cAMP serve as a functional read-out for many G protein-coupled receptors.

Test [1] deals with T3, human Gcg receptor (hGcgR) (Homo sapiens, UniProt P47871).
T3 construct: expressed in transfected cells; crude membranes
T3 sequence (P47871 26-477): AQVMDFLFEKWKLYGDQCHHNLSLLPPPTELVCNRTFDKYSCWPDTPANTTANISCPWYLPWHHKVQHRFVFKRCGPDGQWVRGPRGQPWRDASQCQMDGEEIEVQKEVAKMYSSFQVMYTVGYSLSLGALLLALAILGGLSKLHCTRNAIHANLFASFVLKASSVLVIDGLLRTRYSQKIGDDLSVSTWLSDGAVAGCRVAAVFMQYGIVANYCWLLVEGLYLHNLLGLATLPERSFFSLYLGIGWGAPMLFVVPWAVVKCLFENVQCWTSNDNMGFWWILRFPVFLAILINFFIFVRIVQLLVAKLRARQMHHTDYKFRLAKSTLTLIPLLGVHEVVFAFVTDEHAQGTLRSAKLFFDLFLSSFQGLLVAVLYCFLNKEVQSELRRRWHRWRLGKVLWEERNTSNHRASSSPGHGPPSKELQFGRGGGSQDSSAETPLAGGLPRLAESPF
Nature of the test: [125I]-Glucagon binding, SPA with membranes of HEK293 cells expressing hGcgR. The following applies: human GcgR; geometric mean (SEM, n); read-out: Binding Affinity Ki, nM (SEM, n) hGCGR.

The mark [2] stands for this setting: HEK293, 0.1% bovine casein and 1.0% human serum albumin, 37° C., percent of maximal response to GIP(1-42)NH2.
[3] abbreviates: HEK293, percent of maximal response to GIP(1-42)NH2, 37° C., 0.1% bovine casein, arithmetic mean.
The mark [4] stands for this setting: cAMP, incubated at 37° C., 0.1% bovine casein (no human serum albumin).
Setting [5] is: 0.1% bovine casein and 1.0% human serum albumin, 37° C.

T2 sequence (P47871 26-477): as above

One may read the Emax as the size of the effect at its maximum, as opposed to the concentration needed. What is called EC50 is the concentration needed to bring the measured effect to its halfway point. By Ki is commonly meant a dissociation constant, usually derived from enzyme kinetics or from competition with a known ligand. Consider `CC[C@H](C)[C@H](NC(=O)[C@H](CCCN)NC(=O)[C@H](CC(=O)O)NC(=O)[C@H](CC(C)C)NC(=O)[C@](C)(CC(C)C)NC(=O)[C@@H](NC(=O)C(C)(C)NC(=O)[C@H](Cc1ccncc1)NC(=O)[C@H](CC(=O)O)NC(=O)[C@H](CO)NC(=O)[C@@H](NC(=O)[C@](C)(Cc1ccccc1F)NC(=O)[C@@H](NC(=O)CNC(=O)[C@H](CCC(=O)O)NC(=O)C(C)(C)NC(=O)[C@@H](N)Cc1ccc(O)cc1)[C@@H](C)O)[C@@H](C)O)[C@@H](C)CC)C(=O)N[C@@H](C)C(=O)N[C@@H](CCC(N)=O)C(=O)NC(C)(C)C(=O)N[C@@H](CCC(=O)O)C(=O)N[C@@H](Cc1ccccc1)C(=O)N[C@H](C(=O)N[C@@H](CCCCNC(=O)COCCOCCNC(=O)COCCOCCNC(=O)CC[C@H](NC(=O)CCCCCCCCCCCCC(=O)O)C(=O)O)C(=O)N[C@@](C)(Cc1ccc(O)cc1)C(=O)N[C@@H](CC(C)C)C(=O)N[C@H](C(=O)N[C@@H](CCCCNC(=O)COCCOCCNC(=O)COCCOCCNC(=O)CC[C@H](NC(=O)CCCCCCCCCCCCC(=O)O)C(=O)O)C(=O)NCC(=O)NCC(=O)N1CCC[C@H]1C(=O)N[C@@H](CO)C(=O)N[C@@H](CO)C(=O)NCC(=O)N[C@@H](C)C(=O)N1CCC[C@H]1C(=O)N1CCC[C@H]1C(=O)N1CCC[C@H]1C(=O)N[C@@H](CO)C(N)=O)[C@@H](C)CC)[C@@H](C)CC` [Example 219], for which the Emax was 82.9% on hGIPR (setting [2]) and 96.7% on hGIPR (setting [3]). Besides, the EC50 on hGIPR (setting [4]) is 0.0227 nM; at hGCGR (setting [5]), above 9950 nM; at hGCGR (setting [4]), above 9950 nM; at hGLP-1R (setting [4]), 0.376 nM. In addition, the inhibitory constant (Ki) in test [1] turned out to be 135 nM.
Regarding `CC[C@H](C)[C@H](NC(=O)[C@H](CC(C)C)NC(=O)[C@](C)(Cc1ccc(O)cc1)NC(=O)[C@@H](CCC(=O)O)NC(=O)[C@@H](NC(=O)[C@H](Cc1ccccc1)NC(=O)[C@H](CCC(=O)O)NC(=O)C(C)(C)NC(=O)[C@H](CCC(N)=O)NC(=O)[C@H](C)NC(=O)[C@H](CCCCNC(=O)COCCOCCNC(=O)COCCOCCNC(=O)CC[C@H](NC(=O)CCCCCCCCCCC(=O)O)C(=O)O)NC(=O)[C@H](CCCN)NC(=O)[C@H](CC(=O)O)NC(=O)[C@H](CC(C)C)NC(=O)[C@](C)(CC(C)C)NC(=O)[C@@H](NC(=O)[C@H](CO)NC(=O)[C@H](Cc1ccncc1)NC(=O)[C@H](CC(=O)O)NC(=O)[C@H](CO)NC(=O)[C@@H](NC(=O)[C@](C)(Cc1ccccc1F)NC(=O)[C@@H](NC(=O)CNC(=O)[C@H](CCC(=O)O)NC(=O)C(C)(C)NC(=O)[C@@H](N)Cc1ccc(O)cc1)[C@@H](C)O)[C@@H](C)O)[C@@H](C)CC)[C@@H](C)CC)C(=O)N[C@@H](CCC(=O)O)C(=O)NCC(=O)NCC(=O)N[C@@H](CCCCNC(=O)COCCOCCNC(=O)COCCOCCNC(=O)CC[C@H](NC(=O)CCCCCCCCCCC(=O)O)C(=O)O)C(=O)N[C@@H](CO)C(=O)N[C@@H](CO)C(=O)NCC(=O)N[C@@H](C)C(=O)N1CCC[C@H]1C(=O)N1CCC[C@H]1C(=O)N1CCC[C@H]1C(=O)N[C@@H](CO)C(N)=O` [Example 6], the EC50 on hGIPR (setting [5]) was 0.0823 nM; on hGCGR (setting [5]), above 9950 nM; on hGCGR (setting [4]), above 9950 nM; at hGLP-1R (setting [5]), 4.19 nM. On hGIPR (setting [2]), the Emax came to 89.4 ± 1.74%. In addition, the inhibition constant Ki in test [1] is above 969 nM.
For the compound `CC[C@H](C)[C@H](NC(=O)[C@H](CC(C)C)NC(=O)[C@](C)(Cc1ccccc1)NC(=O)[C@@H](CCC(=O)O)NC(=O)[C@@H](NC(=O)[C@H](Cc1ccccc1)NC(=O)[C@H](CCC(=O)O)NC(=O)C(C)(C)NC(=O)[C@H](CCC(N)=O)NC(=O)[C@H](C)NC(=O)[C@H](CCCCNC(=O)COCCOCCNC(=O)COCCOCCNC(=O)CC[C@H](NC(=O)CCCCCCCCCCCCC(=O)O)C(=O)O)NC(=O)[C@H](CCCN)NC(=O)[C@H](CC(=O)O)NC(=O)[C@H](CC(C)C)NC(=O)[C@](C)(CC(C)C)NC(=O)[C@@H](NC(=O)[C@H](CO)NC(=O)[C@H](Cc1ccncc1)NC(=O)[C@H](CC(=O)O)NC(=O)[C@H](CO)NC(=O)[C@@H](NC(=O)[C@](C)(Cc1ccccc1)NC(=O)[C@@H](NC(=O)CNC(=O)[C@H](CCC(=O)O)NC(=O)C(C)(C)NC(=O)[C@@H](N)Cc1ccc(O)cc1)[C@@H](C)O)[C@@H](C)O)[C@@H](C)CC)[C@@H](C)CC)C(=O)N[C@@H](CCC(=O)O)C(=O)NCC(=O)NCC(=O)N[C@@H](CCCCNC(=O)COCCOCCNC(=O)COCCOCCNC(=O)CC[C@H](NC(=O)CCCCCCCCCCCCC(=O)O)C(=O)O)C(=O)N[C@@H](CO)C(=O)N[C@@H](CO)C(=O)NCC(=O)N[C@@H](C)C(=O)N1CCC[C@H]1C(=O)N1CCC[C@H]1C(=O)N1CCC[C@H]1C(=O)N[C@@H](CO)C(N)=O` [Example 48], the maximum response (Emax) on hGIPR (setting [2]) was 90.8%; on hGIPR (setting [3]), 91.6 ± 3.38%; at hGLP-1R (HEK293, 0.1% bovine casein and 1.0% human serum albumin, 37° C., percent of maximal response to GLP-1(7-36)NH2) it was 111%; at hGLP-1R (HEK293, percent of maximal response to GLP-1(7-36)NH2, 37° C., 0.1% bovine casein, arithmetic mean) it was 87.8 ± 6.25%. Besides, the EC50 is 0.0182 nM on hGIPR (setting [4]), above 9950 nM at hGCGR (setting [5]), above 9950 nM at hGCGR (setting [4]) and 1 nM at hGLP-1R (setting [4]). Besides, the Ki in test [1] is above 966 nM.
Regarding `CC[C@H](C)[C@H](NC(=O)[C@H](CC(C)C)NC(=O)[C@](C)(Cc1ccc(O)cc1)NC(=O)[C@@H](CCC(=O)O)NC(=O)[C@@H](NC(=O)[C@H](Cc1ccccc1)NC(=O)[C@H](CCC(=O)O)NC(=O)C(C)(C)NC(=O)[C@H](CCC(N)=O)NC(=O)[C@H](C)NC(=O)[C@H](CCCCNC(=O)COCCOCCNC(=O)COCCOCCNC(=O)CC[C@H](NC(=O)CCCCCCCCCCCCC(=O)O)C(=O)O)NC(=O)[C@H](CCCN)NC(=O)[C@H](CC(=O)O)NC(=O)[C@H](CC(C)C)NC(=O)[C@](C)(CC(C)C)NC(=O)[C@@H](NC(=O)[C@H](CO)NC(=O)[C@H](Cc1ccncc1)NC(=O)[C@H](CC(=O)O)NC(=O)[C@H](CO)NC(=O)[C@@H](NC(=O)[C@](C)(Cc1ccccc1F)NC(=O)[C@@H](NC(=O)CNC(=O)[C@H](CCC(=O)O)NC(=O)C(C)(C)NC(=O)[C@@H](N)Cc1ccc(O)cc1)[C@@H](C)O)[C@@H](C)O)[C@@H](C)CC)[C@@H](C)CC)C(=O)N[C@@H](CCC(=O)O)C(=O)NCC(=O)N[C@@H](CCCCNC(=O)COCCOCCNC(=O)COCCOCCNC(=O)CC[C@H](NC(=O)CCCCCCCCCCCCC(=O)O)C(=O)O)C(=O)N1CCC[C@H]1C(=O)N[C@@H](CO)C(=O)N[C@@H](CO)C(=O)NCC(=O)N[C@@H](C)C(=O)N1CCC[C@H]1C(=O)N1CCC[C@H]1C(=O)N1CCC[C@H]1C(=O)N[C@@H](CO)C(N)=O` [Example 18], the concentration giving a half-maximal response (EC50) is 1.12 nM on hGIPR (setting [5]); 0.0226 nM on hGIPR (setting [4]); above 9950 nM at hGCGR (setting [5]); above 9950 nM at hGCGR (setting [4]); 164 nM at hGLP-1R (setting [5]). Further, the Emax at hGIPR (setting [2]) worked out at 86.9 ± 3.59%; at hGIPR (setting [3]), 97.1 ± 3.28%. Moreover, the Ki in test [1] was above 958 nM.
